From publication PMC5218480 (PLoS ONE, 2017)

System: MV-4-11 cells
Test: Gene expression microarray analysis (Affymetrix PrimeView) and GSEA
Assay type: cell-based, human
Set-up: RFU PODN (11730768_x_at) / Fold change /veh PODN (11730768_x_at) / RFU LINC00158 (11744669_a_at) / Fold change /veh LINC00158 (11744669_a_at) / RFU DUSP10 (11751237_a_at) / Fold change /veh DUSP10 (11751237_a_at) / RFU ID3 (11757404_x_at) / Fold change /veh ID3 (11757404_x_at) / RFU PLEKHG5 (11737974_s_at) / Fold change /veh PLEKHG5 (11737974_s_at) / RFU LRRC4B (11730491_at) / Fold change /veh LRRC4B (11730491_at) / RFU GIMAP4 (11747438_a_at) / Fold change /veh GIMAP4 (11747438_a_at) / RFU KRT8 (11758183_x_at) / Fold change /veh KRT8 (11758183_x_at) / RFU CNN1 (11734310_a_at) / Fold change /veh CNN1 (11734310_a_at) / RFU VPS37D (11726825_at) / Fold change /veh VPS37D (11726825_at) / RFU C10orf10 (11716522_x_at) / Fold change /veh C10orf10 (11716522_x_at) / RFU KIR2DL2 /// KIR2DL4 /// KIR2DL5A /// KIR2DL5B /// KIR2DS1 /// KIR2DS2 /// KIR2DS3 /// KIR2DS4 /// KIR3DL3 /// KIR3DL3 /// KIR3DS1 (11738374_at) / Fold change /veh KIR2DL2 /// KIR2DL4 /// KIR2DL5A /// KIR2DL5B /// KIR2DS1 /// KIR2DS2 /// KIR2DS3 /// KIR2DS4 /// KIR3DL3 /// KIR3DL3 /// KIR3DS1 (11738374_at) / RFU C1QL1 (11718748_at) / Fold change /veh C1QL1 (11718748_at) / RFU TMPRSS4 (11747572_a_at) / Fold change /veh TMPRSS4 (11747572_a_at) / RFU HAMP (11756126_x_at) / Fold change /veh HAMP (11756126_x_at) / RFU RNFT2 (11725882_a_at) / Fold change /veh RNFT2 (11725882_a_at) / RFU NR4A2 (11747474_a_at) / Fold change /veh NR4A2 (11747474_a_at) / RFU ABCC12 (11746883_a_at) / Fold change /veh ABCC12 (11746883_a_at) / RFU TMEM136 (11760407_x_at) / Fold change /veh TMEM136 (11760407_x_at) / RFU CLDN22 /// WWC2 (11732394_at) / Fold change /veh CLDN22 /// WWC2 (11732394_at) / RFU HLA-DPB1 (11760878_x_at) / Fold change /veh HLA-DPB1 (11760878_x_at) / RFU SPINT1 (11716480_a_at) / Fold change /veh SPINT1 (11716480_a_at) / RFU GAP43 (11754022_s_at) / Fold change /veh GAP43 (11754022_s_at) / RFU A4GNT (11735810_at) / Fold change /veh A4GNT (11735810_at) / RFU PRB3 (11715151_x_at) / Fold change /veh PRB3 (11715151_x_at) / RFU TUBB4B (11761932_at) / Fold change /veh TUBB4B (11761932_at) / RFU CAPN14 (11732068_a_at) / Fold change /veh CAPN14 (11732068_a_at) / RFU TMCC2 (11721928_a_at) / Fold change /veh TMCC2 (11721928_a_at) / RFU IRGQ (11745062_a_at) / Fold change /veh IRGQ (11745062_a_at) / RFU FAM174B (11720279_a_at) / Fold change /veh FAM174B (11720279_a_at) / RFU TMPRSS4 (11748680_a_at) / Fold change /veh TMPRSS4 (11748680_a_at) / RFU FAM212B (11763350_a_at) / Fold change /veh FAM212B (11763350_a_at) / RFU PLEKHG5 (11743358_a_at) / Fold change /veh PLEKHG5 (11743358_a_at) / RFU ZSCAN30 (11745921_a_at) / Fold change /veh ZSCAN30 (11745921_a_at) / RFU CMKLR1 (11741424_a_at) / Fold change /veh CMKLR1 (11741424_a_at) / RFU LOC101060620 /// MAPK8IP1 (11723275_at) / Fold change /veh LOC101060620 /// MAPK8IP1 (11723275_at) / RFU SPTSSB (11747773_x_at) / Fold change /veh SPTSSB (11747773_x_at) / RFU PRSS12 (11739890_at) / Fold change /veh PRSS12 (11739890_at) / RFU BIN1 (11741810_x_at) / Fold change /veh BIN1 (11741810_x_at) / RFU WNT11 (11732464_a_at) / Fold change /veh WNT11 (11732464_a_at) / RFU C10orf10 (11716521_a_at) / Fold change /veh C10orf10 (11716521_a_at) / RFU C5orf56 (11738089_at) / Fold change /veh C5orf56 (11738089_at) / RFU CYB561 (11721691_x_at) / Fold change /veh CYB561 (11721691_x_at) / RFU ANKRD19P (11752326_a_at) / Fold change /veh ANKRD19P (11752326_a_at) / RFU OR2T12 /// OR2T33 /// OR2T8 (11738714_s_at) / Fold change /veh OR2T12 /// OR2T33 /// OR2T8 (11738714_s_at) / RFU VCAN (11748164_a_at) / Fold change /veh VCAN (11748164_a_at) / RFU JSRP1 (11732532_at) / Fold change /veh JSRP1 (11732532_at) / RFU KRTAP10-11 (11738290_x_at) / Fold change /veh KRTAP10-11 (11738290_x_at) / RFU MYO3A (11730013_a_at) / Fold change /veh MYO3A (11730013_a_at) / RFU EBF3 (11725865_a_at) / Fold change /veh EBF3 (11725865_a_at) / RFU CAMK2N1 (11719241_x_at) / Fold change /veh CAMK2N1 (11719241_x_at) / RFU C5orf56 (11738088_a_at) / Fold change /veh C5orf56 (11738088_a_at) / RFU OLFML3 (11715873_a_at) / Fold change /veh OLFML3 (11715873_a_at) / RFU LOC100653217 /// NTM (11731650_a_at) / Fold change /veh LOC100653217 /// NTM (11731650_a_at) / RFU MAPK11 (11762145_a_at) / Fold change /veh MAPK11 (11762145_a_at) / RFU FIZ1 (11724087_x_at) / Fold change /veh FIZ1 (11724087_x_at) / RFU OASL (11726364_x_at) / Fold change /veh OASL (11726364_x_at) / RFU SOX15 (11748057_x_at) / Fold change /veh SOX15 (11748057_x_at) / RFU CD79A (11719716_a_at) / Fold change /veh CD79A (11719716_a_at) / RFU HIST1H1D (11736915_at) / Fold change /veh HIST1H1D (11736915_at) / RFU CASKIN2 (11723855_a_at) / Fold change /veh CASKIN2 (11723855_a_at) / RFU LOC730098 (11760151_x_at) / Fold change /veh LOC730098 (11760151_x_at) / RFU OR4N2 (11742367_at) / Fold change /veh OR4N2 (11742367_at) / RFU PRRT2 (11749266_a_at) / Fold change /veh PRRT2 (11749266_a_at) / RFU SNX32 (11753110_a_at) / Fold change /veh SNX32 (11753110_a_at) / RFU CDHR5 (11726645_a_at) / Fold change /veh CDHR5 (11726645_a_at) / RFU RCAN1 (11760418_a_at) / Fold change /veh RCAN1 (11760418_a_at) / RFU FAM167A (11723789_a_at) / Fold change /veh FAM167A (11723789_a_at) / RFU FAM26E (11764081_at) / Fold change /veh FAM26E (11764081_at) / RFU ISYNA1 (11749810_s_at) / Fold change /veh ISYNA1 (11749810_s_at) / RFU ACY1 (11761880_at) / Fold change /veh ACY1 (11761880_at) / RFU 11764098_at / Fold change /veh 11764098_at / RFU SAMD14 (11745864_x_at) / Fold change /veh SAMD14 (11745864_x_at) / RFU NPB (11741838_a_at) / Fold change /veh NPB (11741838_a_at) / RFU TMPRSS6 (11731388_a_at) / Fold change /veh TMPRSS6 (11731388_a_at) / RFU KRTAP10-2 (11738614_at) / Fold change /veh KRTAP10-2 (11738614_at) / RFU ARHGAP8 /// PRR5-ARHGAP8 (11727945_x_at) / Fold change /veh ARHGAP8 /// PRR5-ARHGAP8 (11727945_x_at) / RFU KRTAP5-7 /// NADSYN1 (11734609_at) / Fold change /veh KRTAP5-7 /// NADSYN1 (11734609_at) / RFU RASL12 (11751679_a_at) / Fold change /veh RASL12 (11751679_a_at) / RFU CDKN2B (11736163_a_at) / Fold change /veh CDKN2B (11736163_a_at) / RFU PRF1 (11729649_at) / Fold change /veh PRF1 (11729649_at) / RFU, ZNF638 /// ZNF638-IT1 / Fold change vs veh, ZNF638 /// ZNF638-IT1 / RFU, PANK3 / Fold change vs veh, PANK3 / RFU, SH3YL1 / Fold change vs veh, SH3YL1 / RFU, ZEB2 / Fold change vs veh, ZEB2 / RFU, NRIP1 / Fold change vs veh, NRIP1 / RFU, PTTG1IP / Fold change vs veh, PTTG1IP / RFU, CAPN2 / Fold change vs veh, CAPN2 / RFU, MED14 / Fold change vs veh, MED14 / RFU, SNORA58 / Fold change vs veh, SNORA58 / RFU, C1orf63 / Fold change vs veh, C1orf63 / RFU, LRRFIP1 / Fold change vs veh, LRRFIP1 / RFU, NDUFAF7 / Fold change vs veh, NDUFAF7 / RFU, SLC12A2 / Fold change vs veh, SLC12A2 / RFU, IBTK / Fold change vs veh, IBTK / RFU, ESF1 / Fold change vs veh, ESF1 / Fold change vs veh, TMEM50B / RFU, TAOK1 / Fold change vs veh, TAOK1 / RFU, ACBD3 / Fold change vs veh, ACBD3 / RFU, TMA16 / Fold change vs veh, TMA16 / RFU, RWDD3 / Fold change vs veh, RWDD3 / RFU, BCAT1 / Fold change vs veh, BCAT1 / RFU, EDEM3 / Fold change vs veh, EDEM3 / RFU, TMEM33 / Fold change vs veh, TMEM33 / RFU, WDR75 / Fold change vs veh, WDR75 / RFU, AHCTF1 / Fold change vs veh, AHCTF1 / RFU, TFRC / Fold change vs veh, TFRC / RFU, ZDHHC17 / Fold change vs veh, ZDHHC17 / RFU, NOM1 / Fold change vs veh, NOM1 / RFU, ARL8B / Fold change vs veh, ARL8B / RFU, ZBTB11 / Fold change vs veh, ZBTB11 / RFU, TAMM41 / Fold change vs veh, TAMM41 / RFU, KIAA1704 /// LOC100996395 / Fold change vs veh, KIAA1704 /// LOC100996395 / RFU, ING1 / Fold change vs veh, ING1 / RFU, TRMT61B / Fold change vs veh, TRMT61B / RFU, FUBP3 / Fold change vs veh, FUBP3 / RFU, TP53 / Fold change vs veh, TP53 / RFU, TNKS2 / Fold change vs veh, TNKS2 / RFU, ZFP14 / Fold change vs veh, ZFP14 / RFU, ACTR2 / Fold change vs veh, ACTR2 / RFU, PPP3R1 / Fold change vs veh, PPP3R1 / RFU, PIK3R1 / Fold change vs veh, PIK3R1 / RFU, HNRNPA1 / Fold change vs veh, HNRNPA1 / RFU, RNF170 / Fold change vs veh, RNF170 / RFU, ZNF28 / Fold change vs veh, ZNF28 / RFU, RNGTT / Fold change vs veh, RNGTT / RFU, OGT / Fold change vs veh, OGT / RFU, BRD1 / Fold change vs veh, BRD1 / RFU, MARS / Fold change vs veh, MARS / RFU, ZNF655 / Fold change vs veh, ZNF655 / RFU, FAHD1 / Fold change vs veh, FAHD1 / RFU, BDP1 / Fold change vs veh, BDP1 / RFU, LRRCC1 / Fold change vs veh, LRRCC1 / RFU, ARID1A / Fold change vs veh, ARID1A / RFU, ZNF146 / Fold change vs veh, ZNF146 / RFU, ZNF330 / Fold change vs veh, ZNF330 / RFU, GPN3 / Fold change vs veh, GPN3 / RFU, C9orf123 / Fold change vs veh, C9orf123 / RFU, N4BP2L2 / Fold change vs veh, N4BP2L2 / RFU, ARFIP1 / Fold change vs veh, ARFIP1 / RFU, FAM179B / Fold change vs veh, FAM179B / RFU, BCL10 / Fold change vs veh, BCL10 / RFU, UHRF1BP1L / Fold change vs veh, UHRF1BP1L / RFU, BET1 / Fold change vs veh, BET1 / RFU, CNOT2 / Fold change vs veh, CNOT2 / RFU, ZNF268 / Fold change vs veh, ZNF268 / Fold change vs veh, ZNF507 / RFU, DGCR2 / Fold change vs veh, DGCR2 / RFU, WDSUB1 / Fold change vs veh, WDSUB1 / Fold change vs veh, HSP90B1 /// MIR3652 / RFU, ADSS / Fold change vs veh, ADSS / RFU, GK / Fold change vs veh, GK / RFU, ZNF148 / Fold change vs veh, ZNF148 / RFU, TAF9 / Fold change vs veh, TAF9 / RFU, SLC1A5 / Fold change vs veh, SLC1A5 / RFU, SLMO2 / Fold change vs veh, SLMO2 / RFU, ABCC4 / Fold change vs veh, ABCC4 / RFU, LOC101060439 /// RAP1B / Fold change vs veh, LOC101060439 /// RAP1B / RFU, RFX7 / Fold change vs veh, RFX7 / RFU, GTPBP10 / Fold change vs veh, GTPBP10 / RFU, CNEP1R1 / Fold change vs veh, CNEP1R1 / RFU, BIVM-ERCC5 /// ERCC5 / Fold change vs veh, BIVM-ERCC5 /// ERCC5 / RFU, ILF3 / Fold change vs veh, ILF3 / RFU 11762660_at / Fold change /veh 11762660_at / RFU VCAN (11757783_s_at) / Fold change /veh VCAN (11757783_s_at) / RFU DDX43 (11728927_at) / Fold change /veh DDX43 (11728927_at) / RFU KRT8 (11758188_x_at) / Fold change /veh KRT8 (11758188_x_at) / RFU NKD1 (11759106_at) / Fold change /veh NKD1 (11759106_at) / RFU SRD5A1 (11742802_a_at) / Fold change /veh SRD5A1 (11742802_a_at) / RFU TPSAB1 /// TPSB2 (11721975_s_at) / Fold change /veh TPSAB1 /// TPSB2 (11721975_s_at) / RFU GSTM3 (11746129_a_at) / Fold change /veh GSTM3 (11746129_a_at) / RFU IL23R (11737362_x_at) / Fold change /veh IL23R (11737362_x_at) / RFU TMEM51 (11727254_a_at) / Fold change /veh TMEM51 (11727254_a_at) / RFU PIWIL2 (11732686_x_at) / Fold change /veh PIWIL2 (11732686_x_at) / RFU ORM1 (11744905_x_at) / Fold change /veh ORM1 (11744905_x_at) / RFU CCDC152 (11743942_at) / Fold change /veh CCDC152 (11743942_at) / RFU ECM1 (11717891_a_at) / Fold change /veh ECM1 (11717891_a_at) / RFU IL23R (11748794_a_at) / Fold change /veh IL23R (11748794_a_at) / RFU TNFAIP8L3 (11732012_x_at) / Fold change /veh TNFAIP8L3 (11732012_x_at) / RFU MBOAT4 (11741988_at) / Fold change /veh MBOAT4 (11741988_at) / RFU 11764193_at / Fold change /veh 11764193_at / RFU TMEM53 (11763286_at) / Fold change /veh TMEM53 (11763286_at) / RFU MAGEB2 (11727129_at) / Fold change /veh MAGEB2 (11727129_at) / RFU TMEM200A (11744735_a_at) / Fold change /veh TMEM200A (11744735_a_at) / RFU CCDC152 (11751479_a_at) / Fold change /veh CCDC152 (11751479_a_at) / RFU FAM211A (11726209_a_at) / Fold change /veh FAM211A (11726209_a_at) / RFU RGS16 (11746705_a_at) / Fold change /veh RGS16 (11746705_a_at) / RFU VCAN (11755009_s_at) / Fold change /veh VCAN (11755009_s_at) / RFU RHOB (11743442_s_at) / Fold change /veh RHOB (11743442_s_at) / RFU RGS16 (11720943_a_at) / Fold change /veh RGS16 (11720943_a_at) / RFU RGS16 (11720944_at) / Fold change /veh RGS16 (11720944_at) / RFU, VPS4B / Fold change vs veh, VPS4B / RFU, CREB1 / Fold change vs veh, CREB1 / RFU, DNAJC13 / Fold change vs veh, DNAJC13 / RFU, GNAQ / Fold change vs veh, GNAQ / RFU, CDK5R1 / Fold change vs veh, CDK5R1 / RFU, ZRANB3 / Fold change vs veh, ZRANB3 / RFU, CUL4A / Fold change vs veh, CUL4A / RFU, CCNY / Fold change vs veh, CCNY / RFU, UFL1 / Fold change vs veh, UFL1 / RFU, COG3 / Fold change vs veh, COG3 / RFU, DIAPH2 / Fold change vs veh, DIAPH2 / RFU, SKA2 / Fold change vs veh, SKA2 / RFU, AFF3 / Fold change vs veh, AFF3 / RFU, LMF1 / Fold change vs veh, LMF1 / RFU, IPO11 / Fold change vs veh, IPO11 / RFU, DFFB / Fold change vs veh, DFFB / RFU, FOXP1 / Fold change vs veh, FOXP1 / RFU, CARD8 / Fold change vs veh, CARD8 / RFU, STRN3 / Fold change vs veh, STRN3 / RFU, ADK / Fold change vs veh, ADK / RFU, RASSF2 / Fold change vs veh, RASSF2 / RFU, WIPF1 / Fold change vs veh, WIPF1 / RFU, LARP1B / Fold change vs veh, LARP1B / RFU, RASA1 / Fold change vs veh, RASA1 / RFU, RB1 / Fold change vs veh, RB1 / RFU, PPFIA1 / Fold change vs veh, PPFIA1 / RFU, MAT2A / Fold change vs veh, MAT2A / RFU, CCT5 / Fold change vs veh, CCT5 / RFU, WDR92 / Fold change vs veh, WDR92 / RFU, CUX1 / Fold change vs veh, CUX1 / RFU, TTC7A / Fold change vs veh, TTC7A / RFU, TMEM135 / Fold change vs veh, TMEM135 / RFU, DEPTOR / Fold change vs veh, DEPTOR / RFU, CPM / Fold change vs veh, CPM / RFU, DNAJB6 / Fold change vs veh, DNAJB6 / RFU, CACNA2D3 / Fold change vs veh, CACNA2D3 / RFU, DTX4 / Fold change vs veh, DTX4 / RFU, TFCP2 / Fold change vs veh, TFCP2 / RFU, GMCL1 /// GMCL1P1 / Fold change vs veh, GMCL1 /// GMCL1P1 / RFU, AEBP2 / Fold change vs veh, AEBP2 / RFU, SNHG1 /// SNORD22 /// SNORD25 /// SNORD26 /// SNORD27 /// SNORD28 /// SNORD29 /// SNORD31 / Fold change vs veh, SNHG1 /// SNORD22 /// SNORD25 /// SNORD26 /// SNORD27 /// SNORD28 /// SNORD29 /// SNORD31 / Fold change (Aza/veh), C12orf56 (ProbeSet 11735607_a_at) / Fold change (ACY-1035/veh), C12orf56 (ProbeSet 11735607_a_at) / Fold change (Aza/veh), FGFR1OP (ProbeSet 11751329_s_at) / Fold change (ACY-1035/veh), FGFR1OP (ProbeSet 11751329_s_at) / Fold change (Aza/veh), VPS36 (ProbeSet 11739960_a_at) / Fold change (ACY-1035/veh), VPS36 (ProbeSet 11739960_a_at) / RFU SYPL1 (11715823_x_at) / Fold change /veh SYPL1 (11715823_x_at) / RFU IGFBP7 (11715501_s_at) / Fold change /veh IGFBP7 (11715501_s_at) / RFU REEP3 (11722064_at) / Fold change /veh REEP3 (11722064_at) / RFU IGLL1 (11728026_x_at) / Fold change /veh IGLL1 (11728026_x_at): dose or concentration left out as unconfirmed
Conditions: MV-4-11 cells, 48 hours

With Nc1ncn([C@@H]2O[C@H](CO)[C@@H](O)[C@H]2O)c(=O)n1 [azacitidine] the “RFU DDX43 (11728927_at)” value was 12.02 RFU.
